Results as given in US20230285556A1, “METHODS AND COMPOSITIONS FOR TREATING CANCER” (Omeros Corporation, priority 2021, published 2023).

Columns and labels:
OT-I mouse CD8 T cells = test: Example 1: OT-I CD8 T cell 10-day expansion with inhibitors, IL-2 after restimulation with EG7 cells; type: cell-based; settings: 10-day expansion with IL-7+IL-15; 300 nM Compound #10, 100 nM ZM-241385; restimulated with EG7 cells without inhibitors, 6 hours
Method: Purified OT-I mouse CD8 T cells (StemCell mouse CD8 T cell purification kit) were cultured in 24-well plates with C57BL/6 mouse splenocytes (pre-treated with mitomycin C to prevent growth) and pOVA according to the following condition per well: • 2 mL RP10 media (RPMI, 10% fetal calf serum, 6 mM L-Glutamine, 12.5 mM HEPES, 50 μM 2-mercaptoethanol, Penicillin, Streptomycin) • 0.2 million OT-I CD8 T cells • 1.4 million mitomycin C treated splenocytes • 100 nM pOVA
and the following individual conditions: • 1. DMSO vehicle control • 2. 300 nM GPR174 inhibitor Compound #10 • 3.
On day 3, cultures were split 1:4 with new media, the inhibitors were added back to original conditions, and mouse IL-7 and mouse IL-15 were added to 10 ng/mL. On days 5 and 8, cells were washed once, counted, and replated at 0.5 million per well with IL-7 and IL-15 and the original inhibitor conditions. On day 10, cells were counted, washed twice with 12 mL RP10, and restimulated in quadruplicate with EG7 cells (H-2 K^b thymoma expressing OVA) in 96-well round bottom plates according to the following conditions: • 0.2 mL RP10; • 0.1 million OT-I T cells from each T cell expansion condition; and • 0.5 million EG7 cells.
Supernatants were collected after 6 hours and assayed for IL-2 levels (MesoScale Discovery platform).

human CD8 T cells [1] = test: Example 2: human CD8 T cell 10-day expansion with IL-2 and inhibitors, IL-2 after CD3/CD28 restimulation; type: cell-based; settings: 300 nM Compound #10, 100 nM ZM-241385, CD3/CD28 bead restimulation 7 hours
Method: (§1) Purified human CD8 T cells were cultured in 24-well plates according to the following conditions per well: • 1 mL X-VIVO™ 15 media (Lonza) • 1 million human CD8 T cells • 2 million Human T-Activator CD3/CD28 Dynabeads® (ThermoFisher)
(§2) and the following individual conditions: • 1. DMSO vehicle control • 2. […] 300 nM GPR174 inhibitor Compound #10 • 4.
(§3) On days 4 and 7, cultures were washed and seeded at 0.5 million cells per well with the same GPR174 and A2A inhibitor conditions, and with 100 U/mL human IL-2.
After 7 hours of culture, supernatants were harvested and analyzed for IL-2 (MesoScale Discovery).

human CD8 T cells [2] = test: Example 2: flow cytometry phenotype clusters (FlowSOM) of expanded human CD8 T cells; type: cell-based; settings: 10-day culture; relative to vehicle control
Method: as §1, §2, §3
In addition to restimulation, expanded T cells were characterized by flow cytometry to evaluate expression of CCR7, CD39, CD69, TIGIT, CD45RA, LAG3, T-BET. The following detection reagents were used: anti-CD8 BV510, anti-CCR7 PE-Cy7, anti-CD39 BV605, anti-CD69 BV421, anti-TIGIT eFluor450, anti-CD45RA BV750, anti-LAG3 APC-Cy7, anti-T-BET PE-dazzle594 (all from Biolegend, Invitrogen, or BD Biosciences), and LIVE/DEAD™ Fixable Green Dead Cell Stain (ThermoFisher).
Data was collected with a Cytek Northern Lights flow cytometer, and was analyzed in FlowJo, in which automated clustering was performed on a concatenated file (containing all 4 culture conditions) with the FlowSOM plugin to generate 16 clusters. The abundance of each cluster in each cell sample was exported using the Cluster Explorer plugin.

human CD8 T cells [3] = test: Example 3: human CD8 T cell 10-day expansion with IL-7+IL-15 and inhibitors, IL-2 after restimulation; type: cell-based; settings: for IL-2 production following restimulation, fold vs vehicle control (FIG. 4): 300 nM Compound #10, 100 nM ZM-241385, 18 hours restimulation; for IL-2 production following restimulation, fold vs vehicle (FIG. 5): 300 nM Compound #10, 500 nM Compound #49, 100 nM ZM-241385, 18 hours restimulation
Method: Purified human CD8 T cells were cultured in 24-well plates with the following conditions per well: • 2 mL X-VIVO™ 15 media (Lonza) • 1 million human CD8 T cells • 2 million Human T-Activator CD3/CD28 Dynabeads® (ThermoFisher) • 10 ng/mL human IL-7 (R&D Systems) • 10 ng/mL human IL-15 (R&D Systems)
and the following individual conditions for FIG. 4: • 1. DMSO vehicle control • 2. […] 300 nM GPR174 inhibitor Compound #10 • 4.
On days 4 and 7 (FIG. 4) or days 3, 5, and 7 (FIG. 5), cultures were washed and seeded at 0.5 cells million per well with the same GPR174 and A2A inhibitor conditions, and with 10 ng/mL IL-7 and 10 ng/mL IL-15.
After 18 hours of culture, supernatants were harvested and analyzed for IL-2 (MesoScale Discovery).

human CD8 T cells [4] = test: Example 4: human CD8 T cell expansion with GPR174, A2A, PKA or EPAC inhibitors, IL-2 after restimulation; type: cell-based; settings: for IL-2 production following restimulation, fold increase vs vehicle (FIG. 6): 300 nM Compound #10, 100 nM ZM-241385, 500 μM Rp-8-Br-cAMPS, 5 μM ESI-09, 5.5 hours restimulation
Method: Purified human CD8 T cells were cultured in 24-well plates with the following conditions per well: • 2 mL X-VIVO™ 15 media (Lonza) • 0.4 million human CD8 T cells (Donor A) • 2 million Human T-Activator CD3/CD28 Dynabeads® (ThermoFisher) • 10 ng/mL human IL-7 (R&D Systems) • 10 ng/mL human IL-15 (R&D Systems)
and the following individual conditions, ±300 nM Compound #10: • 1. DMSO vehicle control • 2. […] 500 μM Rp-8-Br-cAMPS • 4. 5 μM ESI-09
On days 3, 5, and 7, cultures were washed and seeded at 0.5 cells million per well with the same small molecule inhibitor conditions, and with IL-7 and IL-15.
After 5.5 hours of culture, supernatants were harvested and analyzed for IL-2 content (MesoScale Discovery).

human CD8 T cells [5] = test: Example 5: human CD8 T cell expansion with cAMP pathway and p38 inhibitors, IL-2 after restimulation; type: cell-based; settings: 500 μM Rp-8-Br-cAMPS, 0.5 μM doramapimod
Method: (§4) DMSO vehicle control • 2. […] 500 μM Rp-8-Br-cAMPS • 4. […] 0.5 μM doramapimod • 6. Media control
(§5) or the following individual conditions for the experiment shown in FIG. 8, each ±0.5 μM doramapimod: • 1. DMSO vehicle control • 2. 500 μM Rp-8-Br-cAMPS • 3. […] 5 μM ESI-09
(§6) On days 3, 5, and 7, cultures were washed and seeded at 0.5 cells million per well with the same small molecule inhibitor conditions, and with IL-7 and IL-15. On day 10, cells were washed twice (12 mL media each), and restimulated in quadruplicate in 96-well round-bottom plates with the following conditions: • 0.1 mL X-VIVO™ 15 media (Lonza) • 0.05 million cells from each condition • 0.1 million Human T-Activator CD3/CD28 Dynabeads® (ThermoFisher)
(§7) After overnight culture, supernatants were harvested and analyzed for IL-2 content (MesoScale Discovery).

human CD8 T cells [6] = test: Example 5: T cell number increase during 10-day expansion; type: cell-based
Method: as §4, §5, §6

[7] = test system: OT-I TCR transgenic CD8 T cells; test: Example 6: OT-I CD8 T cell expansion with PKA and p38 inhibitors, IL-2 after restimulation with EG7 cells; type: cell-based, mouse; settings: 0.2 μM doramapimod, 500 μM Rp-8-Br-cAMPS
Method: (§8) and the following individual conditions: • 1. DMSO vehicle control • 2. 0.2 μM doramapimod • 3. 500 μM Rp-8-Br-cAMPS • 4. 0.2 μM doramapimod+500 μM Rp-8-Br-cAMPS
On day 8, cells were immunophenotyped with the following antibodies: anti-CD8 BV570, anti-CD62L eFluor450, anti-TCF1/TCF7 PE, anti-CD39 PerCP-eFluor710, anti-CD69 BV605, anti-PD-1 BV711, anti-CTLA-4 APC, and LIVE/DEAD™ Fixable Green Dead Cell Stain.
as §7

[8] = test system: OT-I TCR transgenic CD8 T cells; test: Example 6: immunophenotyping of OT-I T cells on day 8; type: cell-based, mouse; settings: 8 days of culture
Method: as §8
On days 2, 4, 6, and 8, cells were counted, washed, and reseeded at 0.5 million per well in 2 mL media with the same 4 doramapimod/Rp-8-Br-cAMPS conditions and with recombinant mouse IL-2 and IL-7 (5 ng/mL each). On day 8, cells were immunophenotyped with the following antibodies: anti-CD8 BV570, anti-CD62L eFluor450, anti-TCF1/TCF7 PE, anti-CD39 PerCP-eFluor710, anti-CD69 BV605, anti-PD-1 BV711, anti-CTLA-4 APC, and LIVE/DEAD™ Fixable Green Dead Cell Stain.

EG7 tumors = test: Example 7: adoptive transfer of inhibitor-precultured OT-1 T cells into EG7 tumor-bearing mice; type: in vivo, mouse
Method: as §8
On day 6 cells were seeded in 6-well plates with […] per well, and on day 8 cells were seeded in T75 flasks in 30 mL media to obtain enough cells to transfer into EG7 tumor-bearing mice.
C57BL/6 female mice were implanted with 6 million EG7 tumor cells subcutaneously on day 4 of the OT-1 T cell expansion. On day 6 of tumor growth (day 10 of OT-1 T cell expansion) OT-1 T cells were washed and injected retro-orbitally into tumor bearing mice that had been sorted into 4 groups with equal tumor volume distributions (n=8). Via retroorbital injection, mice received 2 million OT1 T cells of each of the 4 culture conditions. Tumor volume (mm^3) was calculated as 0.5×(length×width^2), where length represents the largest tumor diameter and width represents the perpendicular tumor diameter. Mice were euthanized when the sum of the two measurements exceeded 30 mm.

[9] = test system: OT-I TCR transgenic CD8 T cells; test: Example 8: OT-I CD8 T cell 9-day expansion with PKA, p38, PI3Kδ inhibitors, IL-2 after restimulation with EG7 cells; type: cell-based, mouse
Method: DMSO vehicle control • 2. 0.5 μM doramapimod • 3. 500 μM Rp-8-Br-cAMPS • 4. 0.5 μM doramapimod+500 μM Rp-8-Br-cAMPS • 5. 1 μM idelalisib • 6. 1 μM idelalisib+0.5 μM doramapimod • 7. 1 μM idelalisib+500 μM Rp-8-Br-cAMPS • 8. 1 μM idelalisib+0.5 μM doramapimod+500 μM Rp-8-Br-cAMPS
On days 2, 4, 6, and 8, cells were counted, washed and reseeded at 0.5 million per well in 2 mL media with the same 8 conditions and with recombinant mouse IL-2 and IL-7 (5 ng/mL each). […] Cells were also washed three times (12 mL media each), and restimulated in quintuplicate in 96-well round-bottom plates with the following conditions: • 0.1 mL RP10 media • 0.05 million OT-I T cells from each condition • 0.05 million EG7 cells
as §7

| SMILES | IL-2 production following restimulation, fold above Vehicle (OT-I mouse CD8 T cells) [fold] | IL-2 production upon restimulation, fold increase vs vehicle (human CD8 T cells [1]) | T cell phenotype clusters enriched or reduced (CD39, CD69, TIGIT, T-BET, LAG3, CCR7, CD45RA) (human CD8 T cells [2]) | IL-2 production following restimulation, fold vs vehicle control (FIG. 4) (human CD8 T cells [3]) | IL-2 production following restimulation, fold vs vehicle (FIG. 5) (human CD8 T cells [3]) | IL-2 production following restimulation, fold increase vs vehicle (FIG. 6) (human CD8 T cells [4]) | IL-2 production following restimulation, effect in the presence of Rp-8-Br-cAMPS (FIG. 6) (human CD8 T cells [4]; 300 nM Compound #10 added to 500 μM Rp-8-Br-cAMPS) | IL-2 production following restimulation, fold above vehicle control (FIG. 8) (human CD8 T cells [5]; 10 μM HJC-0197, 5 μM ESI-09) [fold] | IL-2 production following restimulation, fold vs vehicle (FIG. 7) (human CD8 T cells [5]; GPR174+A2A inhibitors, overnight restimulation) [fold] | T cell growth during the 10-day culture relative to vehicle-treated cells (FIG. 8) (human CD8 T cells [6]) [fold] | fold-increase in T cell number during the 10-day expansion (FIG. 7) (human CD8 T cells [6]; vehicle and media controls approximately 50-fold) [fold] | IL-2 production from 8-day OT-I cultures, fold vs vehicle control ([7]; day 8 restimulation with EG7 cells) [fold] | IL-2 production from 10-day OT-I cultures, fold over vehicle control ([7]; day 10 restimulation with EG7 cells) [fold] | downregulation of CTLA-4 [8] | increase in cells expressing both CD62L and TCF1/TCF7 relative to vehicle control [8] | percentage of OT-I T cells expressing both CD39 and CD69 ([8]; vehicle 22%) | tumor growth / tumor volume after transfer of precultured OT-1 T cells (EG7 tumors; 2 million OT-1 T cells expanded 10 days with 0.2 μM doramapimod and/or 500 μM Rp-8-Br-cAMPS, retro-orbital, relative to vehicle control cells) | survival of tumor-bearing mice (EG7 tumors; OT-1 T cells precultured with inhibitor(s), relative to vehicle group) | Fold-change in IL-2 production relative to Vehicle control ([9]; Idelalisib (agent together with 1 μM idelalisib)) | Fold-change in IL-2 production relative to Vehicle control ([9]; column Vehicle (without idelalisib), 0.5 μM doramapimod, 500 μM Rp-8-Br-cAMPS) |
| --- | --- | --- | --- | --- | --- | --- | --- | --- | --- | --- | --- | --- | --- | --- | --- | --- | --- | --- | --- | --- |
| CC1CCN(c2cc(N3CCN(S(=O)(=O)c4ccccc4)CC3)c([N+](=O)[O-])cc2F)CC1 [Compound 10] | 1.8 | 1.7 fold | displayed this same trend, albeit to a lesser degree | 3 fold | approximately 1.3 fold | negligible effect | did not enhance IL-2 production | – | – | – | – | – | – | – | – | – | – | – | – | – |
| Nc1ncnc2c1nc(Br)n2[C@@H]1O[C@@H]2COP([O-])(=S)O[C@H]2[C@H]1O.[Na+] (single isomer, unassigned) [Rp-8-Br-cAMPS, 8-Br-cAMPS, Rp-isomer] | – | – | – | – | – | 3.7 fold | – | 2 | 3.6 | ~2 | 170 | 5.3 | 18 | particularly effective at downregulating CTLA-4 | smaller increases | smaller reductions | significantly halted and delayed tumor growth | intermediate survival times | 89.9 | 1.6 |
| Nc1nc(NCCc2ccc(O)cc2)nc2nc(-c3ccco3)nn12 [ZM-241385, ZM 241385] | – | did not alter IL-2 production | relatively unchanged | negligible | approximately 1.3 fold | negligible effect | – | – | – | – | – | – | – | – | – | – | – | – | – | – |
